Source: ChEMBL document CHEMBL3885881, “DrugMatrix”

Organism: Rattus norvegicus
Experiment: DrugMatrix - Regimen: Daily Repeat
Assay type: toxicity, organism-based, Sprague-Dawley
Design: regimen Daily Repeat, gender Male, age 6-8 weeks
Conditions: in vivo, po, 100 mg/kg, route oral GAVAGE, dose level High, vehicle .5 % CMC; for ABSOLUTE BASOPHIL / ABSOLUTE EOSINOPHIL / ABSOLUTE LYMPHOCYTE / ABSOLUTE MONOCYTE / ABSOLUTE SEGMENTED NEUTROPHIL / BASOPHIL / EOSINOPHIL / ERYTHROCYTE COUNT / HEMATOCRIT / HEMOGLOBIN / LEUKOCYTE COUNT / LYMPHOCYTE / MEAN CORPUSCULAR HEMOGLOBIN / MEAN CORPUSCULAR HEMOGLOBIN CONCENTRATION / MEAN CORPUSCULAR VOLUME / MONOCYTE / NEUTROPHIL / NUCLEATED RED BLOOD CELLS / PLATELET COUNT: tissue Blood; for ALANINE AMINOTRANSFERASE / ALBUMIN / ALKALINE PHOSPHATASE / ASPARTATE AMINOTRANSFERASE / BLOOD UREA NITROGEN / CARBON DIOXIDE / CHLORIDE / CHOLESTEROL / CREATINE PHOSPHOKINASE / CREATININE / GLUCOSE / LACTATE DEHYDROGENASE / LIPASE / PHOSPHORUS / POTASSIUM / SODIUM / TOTAL BILIRUBIN / TOTAL PROTEIN / URIC ACID: tissue Plasma

`CN1[C@@H]2CC[C@H]1C[C@@H](OC(=O)c1c[nH]c3ccccc13)C2` [TROPISETRON] was tested, and the “ABSOLUTE BASOPHIL” value (72 h, time 3 day) was 0 CELLS/uL, the “ABSOLUTE EOSINOPHIL” value (72 h, time 3 day) was 0 CELLS/uL and the “ABSOLUTE LYMPHOCYTE” value (72 h, time 3 day) was 8279 CELLS/uL. The “ABSOLUTE MONOCYTE” value (72 h, time 3 day) was 180 CELLS/uL, the “ABSOLUTE SEGMENTED NEUTROPHIL” value (72 h, time 3 day) was 707.67 CELLS/uL and the BASOPHIL (72 h, time 3 day) was 0%. For the same compound, the EOSINOPHIL (72 h, time 3 day) was 0%, the “ERYTHROCYTE COUNT” value (72 h, time 3 day) was 5.38 x10E6/uL and the HEMATOCRIT (72 h, time 3 day) was 33.5%. For the same compound, the HEMOGLOBIN (72 h, time 3 day) was 12.6 G/DL, the “LEUKOCYTE COUNT” value (72 h, time 3 day) was 9.17 x10E3/uL and the LYMPHOCYTE (72 h, time 3 day) was 90.33%. The “MEAN CORPUSCULAR HEMOGLOBIN” value (72 h, time 3 day) was 23.47 pg, the “MEAN CORPUSCULAR HEMOGLOBIN CONCENTRATION” value (72 h, time 3 day) was 37.6 G/DL and the “MEAN CORPUSCULAR VOLUME” value (72 h, time 3 day) was 62.3 fL. The MONOCYTE (72 h, time 3 day) was 2%, the NEUTROPHIL (72 h, time 3 day) was 7.67% and the “NUCLEATED RED BLOOD CELLS” value (72 h, time 3 day) was 0 /100WBC. For the same compound, the “PLATELET COUNT” value (72 h, time 3 day) was 1392.33 x10E3/uL, the “ALANINE AMINOTRANSFERASE” value (72 h, time 3 day) was 63.67 u/L and the ALBUMIN (72 h, time 3 day) was 4.3 G/DL. The “ALKALINE PHOSPHATASE” value (72 h, time 3 day) was 429.67 u/L, the “ASPARTATE AMINOTRANSFERASE” value (72 h, time 3 day) was 69.33 u/L and the “BLOOD UREA NITROGEN” value (72 h, time 3 day) was 14.33 mg/dL. For the same compound, the “CARBON DIOXIDE” value (72 h, time 3 day) was 27.67 mmol/L, the CHLORIDE (72 h, time 3 day) was 105.67 MEQ/L and the CHOLESTEROL (72 h, time 3 day) was 54.33 mg/dL. The “CREATINE PHOSPHOKINASE” value (72 h, time 3 day) was 189.33 u/L, the CREATININE (72 h, time 3 day) was 0.3 mg/dL and the GLUCOSE (72 h, time 3 day) was 155.33 mg/dL. For the same compound, the “LACTATE DEHYDROGENASE” value (72 h, time 3 day) was 122.67 u/L, the LIPASE (72 h, time 3 day) was 8.33 u/L and the PHOSPHORUS (72 h, time 3 day) was 13.03 mg/dL. The POTASSIUM (72 h, time 3 day) was 5.65 MEQ/L, the SODIUM (72 h, time 3 day) was 149.97 MEQ/L and the “TOTAL BILIRUBIN” value (72 h, time 3 day) was 0.2 mg/dL. For the same compound, the “TOTAL PROTEIN” value (72 h, time 3 day) was 5.87 G/DL, the “URIC ACID” value (72 h, time 3 day) was 1.2 mg/dL and the “ABSOLUTE BASOPHIL” value (120 h, time 5 day) was 0 CELLS/uL. The “ABSOLUTE EOSINOPHIL” value (120 h, time 5 day) was 100.67 CELLS/uL, the “ABSOLUTE LYMPHOCYTE” value (120 h, time 5 day) was 14254 CELLS/uL and the “ABSOLUTE MONOCYTE” value (120 h, time 5 day) was 107 CELLS/uL. For the same compound, the “ABSOLUTE SEGMENTED NEUTROPHIL” value (120 h, time 5 day) was 1271.67 CELLS/uL, the BASOPHIL (120 h, time 5 day) was 0% and the EOSINOPHIL (120 h, time 5 day) was 0.67%. The “ERYTHROCYTE COUNT” value (120 h, time 5 day) was 5.79 x10E6/uL, the HEMATOCRIT (120 h, time 5 day) was 36.33% and the HEMOGLOBIN (120 h, time 5 day) was 13.6 G/DL. The “LEUKOCYTE COUNT” value (120 h, time 5 day) was 15.73 x10E3/uL, the LYMPHOCYTE (120 h, time 5 day) was 90.67% and the “MEAN CORPUSCULAR HEMOGLOBIN” value (120 h, time 5 day) was 23.5 pg. For the same compound, the “MEAN CORPUSCULAR HEMOGLOBIN CONCENTRATION” value (120 h, time 5 day) was 37.43 G/DL, the “MEAN CORPUSCULAR VOLUME” value (120 h, time 5 day) was 62.73 fL and the MONOCYTE (120 h, time 5 day) was 0.67%. The NEUTROPHIL (120 h, time 5 day) was 8%, the “NUCLEATED RED BLOOD CELLS” value (120 h, time 5 day) was 0 /100WBC and the “PLATELET COUNT” value (120 h, time 5 day) was 1276.33 x10E3/uL. The “ALANINE AMINOTRANSFERASE” value (120 h, time 5 day) was 63.67 u/L, the ALBUMIN (120 h, time 5 day) was 4.2 G/DL and the “ALKALINE PHOSPHATASE” value (120 h, time 5 day) was 501 u/L. For the same compound, the “ASPARTATE AMINOTRANSFERASE” value (120 h, time 5 day) was 81.67 u/L, the “BLOOD UREA NITROGEN” value (120 h, time 5 day) was 16 mg/dL and the “CARBON DIOXIDE” value (120 h, time 5 day) was 26.33 mmol/L. For the same compound, the CHLORIDE (120 h, time 5 day) was 105.33 MEQ/L, the CHOLESTEROL (120 h, time 5 day) was 59.33 mg/dL and the “CREATINE PHOSPHOKINASE” value (120 h, time 5 day) was 219 u/L. The CREATININE (120 h, time 5 day) was 0.25 mg/dL, the GLUCOSE (120 h, time 5 day) was 178 mg/dL and the “LACTATE DEHYDROGENASE” value (120 h, time 5 day) was 91 u/L. The LIPASE (120 h, time 5 day) was 9 u/L, the PHOSPHORUS (120 h, time 5 day) was 15.37 mg/dL and the POTASSIUM (120 h, time 5 day) was 5.6 MEQ/L. The SODIUM (120 h, time 5 day) was 146.8 MEQ/L, the “TOTAL BILIRUBIN” value (120 h, time 5 day) was 0.17 mg/dL and the “TOTAL PROTEIN” value (120 h, time 5 day) was 6.13 G/DL. The “URIC ACID” value (120 h, time 5 day) was 2.13 mg/dL.
